The target of assay [1] is Phosphatidylinositol 4,5-bisphosphate 3-kinase catalytic subunit delta isoform (Homo sapiens) (UniProt O00329). Put plainly: Inhibition of wild-type human partial length PIK3CD (R108 to Q1044 residues) expressed in mammalian expression system at 1 uM by Kinomescan method relative to control.
In assay [2] the target is Receptor-type tyrosine-protein kinase FLT3 (Homo sapiens) (UniProt P36888). Put plainly: Inhibition of wild-type human partial length FLT3 (V592 to Y969 residues) expressed in bacterial expression system at 1 uM by Kinomescan method relative to control.
Sequence of Receptor-type tyrosine-protein kinase FLT3 (Homo sapiens) (P36888 whole entry, the tested form may be a part): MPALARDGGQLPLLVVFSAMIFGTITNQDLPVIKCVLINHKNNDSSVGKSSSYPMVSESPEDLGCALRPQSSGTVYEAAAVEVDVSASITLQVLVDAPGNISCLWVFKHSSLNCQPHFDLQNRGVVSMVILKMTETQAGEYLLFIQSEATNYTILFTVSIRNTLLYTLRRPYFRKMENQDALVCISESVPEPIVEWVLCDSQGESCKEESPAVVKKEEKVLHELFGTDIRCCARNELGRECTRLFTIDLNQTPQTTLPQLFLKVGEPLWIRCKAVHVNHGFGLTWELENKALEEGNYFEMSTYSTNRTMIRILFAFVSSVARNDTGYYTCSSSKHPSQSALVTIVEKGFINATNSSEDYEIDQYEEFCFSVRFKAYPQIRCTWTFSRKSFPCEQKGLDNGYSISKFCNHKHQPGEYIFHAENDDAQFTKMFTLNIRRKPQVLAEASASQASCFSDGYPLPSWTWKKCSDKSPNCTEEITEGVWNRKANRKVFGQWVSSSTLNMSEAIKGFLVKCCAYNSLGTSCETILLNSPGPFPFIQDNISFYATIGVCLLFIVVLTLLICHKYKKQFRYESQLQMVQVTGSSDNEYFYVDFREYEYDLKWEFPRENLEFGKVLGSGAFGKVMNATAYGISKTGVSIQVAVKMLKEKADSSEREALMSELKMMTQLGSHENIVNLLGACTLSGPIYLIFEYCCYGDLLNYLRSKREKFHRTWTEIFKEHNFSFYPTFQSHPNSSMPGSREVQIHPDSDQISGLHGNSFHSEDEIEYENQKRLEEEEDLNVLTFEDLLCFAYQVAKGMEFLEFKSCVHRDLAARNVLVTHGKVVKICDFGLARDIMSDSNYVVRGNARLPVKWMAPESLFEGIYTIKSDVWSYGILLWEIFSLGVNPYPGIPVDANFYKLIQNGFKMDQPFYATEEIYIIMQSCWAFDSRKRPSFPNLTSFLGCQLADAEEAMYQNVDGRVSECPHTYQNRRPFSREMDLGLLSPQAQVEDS
The target in assay [3] is Mitogen-activated protein kinase kinase kinase 3 (Homo sapiens) (UniProt Q99759). Put plainly: Inhibition of wild-type human partial length MAP3K3 (E320 to Y626 residues) expressed in mammalian expression system at 1 uM by Kinomescan method relative to control.
The target of assay [4] is RAF proto-oncogene serine/threonine-protein kinase (Homo sapiens) (UniProt P04049). Kind of assay: Inhibition of wild-type human partial length RAF1 (I330 to T640 residues) expressed in bacterial expression system at 1 uM by Kinomescan method relative to control.
In assay [5] the target is Myosin light chain kinase (Homo sapiens) (UniProt Q32MK0). Kind of assay: Inhibition of wild-type human partial length MLCK (D488 to K800 residues) expressed in bacterial expression system at 1 uM by Kinomescan method relative to control.
Sequence of Myosin light chain kinase (Homo sapiens) (Q32MK0 whole entry, the tested form may be a part): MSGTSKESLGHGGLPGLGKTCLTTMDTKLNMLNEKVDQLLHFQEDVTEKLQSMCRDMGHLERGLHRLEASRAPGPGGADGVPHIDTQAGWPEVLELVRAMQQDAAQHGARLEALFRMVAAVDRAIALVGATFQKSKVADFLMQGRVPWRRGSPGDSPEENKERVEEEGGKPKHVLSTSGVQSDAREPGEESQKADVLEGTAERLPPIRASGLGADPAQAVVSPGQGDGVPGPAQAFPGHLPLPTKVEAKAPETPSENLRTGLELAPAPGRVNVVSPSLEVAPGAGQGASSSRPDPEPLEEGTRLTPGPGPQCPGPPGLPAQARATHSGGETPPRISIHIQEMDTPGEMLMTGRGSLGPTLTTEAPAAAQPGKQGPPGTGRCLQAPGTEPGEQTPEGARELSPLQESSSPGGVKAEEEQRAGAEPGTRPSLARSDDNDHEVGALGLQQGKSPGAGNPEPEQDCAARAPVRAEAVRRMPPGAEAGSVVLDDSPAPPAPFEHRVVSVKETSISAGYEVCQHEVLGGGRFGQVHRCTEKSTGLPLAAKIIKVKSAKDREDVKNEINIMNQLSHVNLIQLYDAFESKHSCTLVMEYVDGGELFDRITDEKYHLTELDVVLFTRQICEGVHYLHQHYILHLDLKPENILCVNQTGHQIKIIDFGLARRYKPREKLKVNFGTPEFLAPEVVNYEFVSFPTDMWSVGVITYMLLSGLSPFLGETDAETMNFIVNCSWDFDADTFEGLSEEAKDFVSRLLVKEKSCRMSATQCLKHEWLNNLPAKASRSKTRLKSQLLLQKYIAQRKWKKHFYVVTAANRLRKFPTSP
The target of assay [6] is Serine/threonine-protein kinase 38 (Homo sapiens) (UniProt Q15208). Put plainly: Inhibition of wild-type human partial length NDR1 (N33 to E449 residues) expressed in mammalian expression system at 1 uM by Kinomescan method relative to control.
Sequence of Serine/threonine-protein kinase 38 (Homo sapiens) (Q15208 2-465 limits assumed): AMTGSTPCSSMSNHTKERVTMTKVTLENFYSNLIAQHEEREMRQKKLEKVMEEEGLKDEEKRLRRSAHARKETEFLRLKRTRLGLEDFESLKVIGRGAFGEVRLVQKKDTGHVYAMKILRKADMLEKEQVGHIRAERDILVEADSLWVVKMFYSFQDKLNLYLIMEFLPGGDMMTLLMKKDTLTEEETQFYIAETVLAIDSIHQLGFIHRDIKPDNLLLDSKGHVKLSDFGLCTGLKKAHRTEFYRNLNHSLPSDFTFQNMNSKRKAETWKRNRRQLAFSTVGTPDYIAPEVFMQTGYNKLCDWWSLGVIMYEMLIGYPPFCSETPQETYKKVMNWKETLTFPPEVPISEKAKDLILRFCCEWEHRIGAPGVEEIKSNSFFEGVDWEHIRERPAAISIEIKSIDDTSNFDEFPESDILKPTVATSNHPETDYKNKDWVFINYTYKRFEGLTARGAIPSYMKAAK
Assay [7] addresses Serine/threonine-protein kinase Nek6 (Homo sapiens) (UniProt Q9HC98). Put plainly: Inhibition of wild-type human full length NEK6 (M8 to T313 residues) expressed in bacterial expression system at 1 uM by Kinomescan method relative to control.
The target in assay [8] is Mitogen-activated protein kinase 1 (Homo sapiens) (UniProt P28482). Put plainly: Inhibition of wild-type human full length ERK2 (M1 to S360 residues) expressed in bacterial expression system at 1 uM by Kinomescan method relative to control.
Sequence of Mitogen-activated protein kinase 1 (Homo sapiens) (P28482 whole entry, the tested form may be a part): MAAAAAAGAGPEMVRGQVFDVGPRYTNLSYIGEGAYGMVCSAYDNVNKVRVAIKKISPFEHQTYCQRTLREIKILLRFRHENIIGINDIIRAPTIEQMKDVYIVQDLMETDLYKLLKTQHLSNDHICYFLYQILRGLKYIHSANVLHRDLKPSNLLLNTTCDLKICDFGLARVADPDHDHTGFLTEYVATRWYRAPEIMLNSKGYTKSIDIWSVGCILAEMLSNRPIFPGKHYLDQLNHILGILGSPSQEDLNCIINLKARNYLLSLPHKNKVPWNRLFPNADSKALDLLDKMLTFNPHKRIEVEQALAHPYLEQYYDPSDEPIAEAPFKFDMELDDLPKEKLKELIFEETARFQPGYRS
Assay [9] has as its target Serine/threonine-protein kinase LATS2 (Homo sapiens) (UniProt Q9NRM7). Kind of assay: Inhibition of wild-type human partial length LATS2 (Q641 to V1088 residues) expressed in mammalian expression system at 1 uM by Kinomescan method relative to control.
The target in assay [10] is Wee1-like protein kinase (Homo sapiens) (UniProt P30291). Kind of assay: Inhibition of wild-type human partial length WEE1 (M291 to K575 residues) expressed in bacterial expression system at 1 uM by Kinomescan method relative to control.
In assay [11] the target is Serine/threonine-protein kinase tousled-like 1 (Homo sapiens) (UniProt Q9UKI8). Kind of assay: Inhibition of wild-type human partial length TLK1 (K447 to A754 residues) expressed in bacterial expression system at 1 uM by Kinomescan method relative to control.
The target of assay [12] is Ribosomal protein S6 kinase alpha-5 (Homo sapiens) (UniProt O75582). Kind of assay: Inhibition of wild-type human partial length N-terminal RPS6KA5 kinase domain 1 expressed in bacterial expression system at 10 uM by Kinomescan method relative to control.
In assay [13] the target is Mitotic checkpoint serine/threonine-protein kinase BUB1 (Homo sapiens) (UniProt O43683). Put plainly: Inhibition of wild-type human partial length BUB1 (Q724 to K1085 residues) expressed in mammalian expression system at 10 uM by Kinomescan method relative to control.
Assay [14] addresses Serine/threonine-protein kinase TNNI3K (Homo sapiens) (UniProt Q59H18). Put plainly: Inhibition of wild-type human full length TNNI3K (M1 to S835 residues) expressed in bacterial expression system at 10 uM by Kinomescan method relative to control.
Assay [15] concerns the target Rho-associated protein kinase 1 (Homo sapiens) (UniProt Q13464). Kind of assay: Inhibition of wild-type human partial length ROCK1 (M1 to R415 residues) expressed in mammalian expression system at 10 uM by Kinomescan method relative to control.
Assay [16] concerns Epidermal growth factor receptor (Homo sapiens), P00533 [G719S]. Put plainly: Inhibition of human partial length EGFR G719S mutant (R669 to V1011 residues) expressed in bacterial expression system at 10 uM by Kinomescan method relative to control.
The target in assay [17] is Serine/threonine-protein kinase PAK 5 (Homo sapiens) (UniProt Q9P286). Kind of assay: Inhibition of wild-type human partial length PAK7 (Y400 to H719 residues) expressed in bacterial expression system at 10 uM by Kinomescan method relative to control.
Assay [18] deals with Bone morphogenetic protein receptor type-1B (Homo sapiens) (UniProt O00238). Put plainly: Inhibition of wild-type human partial length BMPR1B (D178 to L502 residues) expressed in mammalian expression system at 10 uM by Kinomescan method relative to control.
For assay [19], the target named is ALK tyrosine kinase receptor (Homo sapiens) (UniProt Q9UM73). Put plainly: Inhibition of wild-type human partial length ALK (I1088 to E1409 residues) expressed in mammalian expression system at 10 uM by Kinomescan method relative to control.
Sequence of ALK tyrosine kinase receptor (Homo sapiens) (Q9UM73 19-1620 limits assumed): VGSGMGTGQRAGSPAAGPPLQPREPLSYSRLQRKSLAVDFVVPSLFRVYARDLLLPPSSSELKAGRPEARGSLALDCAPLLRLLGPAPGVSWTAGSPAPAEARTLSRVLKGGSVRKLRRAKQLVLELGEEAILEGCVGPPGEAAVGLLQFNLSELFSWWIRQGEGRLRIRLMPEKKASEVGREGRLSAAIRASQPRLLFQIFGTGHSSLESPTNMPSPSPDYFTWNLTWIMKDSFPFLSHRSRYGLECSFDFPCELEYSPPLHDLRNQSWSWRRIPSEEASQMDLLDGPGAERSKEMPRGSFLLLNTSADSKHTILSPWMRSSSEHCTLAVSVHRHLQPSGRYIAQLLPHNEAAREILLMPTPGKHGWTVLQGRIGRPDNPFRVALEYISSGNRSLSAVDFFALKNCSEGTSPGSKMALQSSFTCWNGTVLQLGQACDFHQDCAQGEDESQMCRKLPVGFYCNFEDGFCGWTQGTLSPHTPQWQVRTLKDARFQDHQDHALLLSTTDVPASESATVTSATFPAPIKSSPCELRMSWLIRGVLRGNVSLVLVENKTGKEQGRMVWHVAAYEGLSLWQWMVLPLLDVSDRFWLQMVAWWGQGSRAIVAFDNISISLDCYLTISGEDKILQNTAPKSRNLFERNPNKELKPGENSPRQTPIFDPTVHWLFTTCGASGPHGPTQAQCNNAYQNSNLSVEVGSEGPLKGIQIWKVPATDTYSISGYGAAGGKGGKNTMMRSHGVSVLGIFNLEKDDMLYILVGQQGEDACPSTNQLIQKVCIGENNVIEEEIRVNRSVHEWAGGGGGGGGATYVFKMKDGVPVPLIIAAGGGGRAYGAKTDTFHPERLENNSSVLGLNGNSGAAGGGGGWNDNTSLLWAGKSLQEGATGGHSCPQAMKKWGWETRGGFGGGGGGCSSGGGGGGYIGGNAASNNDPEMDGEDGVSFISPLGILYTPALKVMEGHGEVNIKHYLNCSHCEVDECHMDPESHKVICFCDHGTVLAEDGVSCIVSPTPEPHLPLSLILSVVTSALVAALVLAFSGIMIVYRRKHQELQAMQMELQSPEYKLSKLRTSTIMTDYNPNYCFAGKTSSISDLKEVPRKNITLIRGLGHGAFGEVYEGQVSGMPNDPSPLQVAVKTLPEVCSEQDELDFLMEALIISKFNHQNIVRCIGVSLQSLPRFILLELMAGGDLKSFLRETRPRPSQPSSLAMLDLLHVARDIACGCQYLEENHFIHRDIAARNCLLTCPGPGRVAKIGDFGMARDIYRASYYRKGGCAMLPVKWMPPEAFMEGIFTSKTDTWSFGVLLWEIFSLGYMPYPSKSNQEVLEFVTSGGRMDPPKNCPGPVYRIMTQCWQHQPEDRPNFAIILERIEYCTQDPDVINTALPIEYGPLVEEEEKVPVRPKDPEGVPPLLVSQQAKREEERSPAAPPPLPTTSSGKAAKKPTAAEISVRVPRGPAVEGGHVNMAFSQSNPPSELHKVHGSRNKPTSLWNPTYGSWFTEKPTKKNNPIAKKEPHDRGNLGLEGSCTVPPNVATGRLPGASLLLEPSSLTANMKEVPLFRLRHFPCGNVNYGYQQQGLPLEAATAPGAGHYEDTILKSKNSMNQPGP
The target in assay [20] is Cyclin-dependent kinase 15 (Homo sapiens) (UniProt Q96Q40). Put plainly: Inhibition of wild-type human full length PFTAIRE2 (M1 to W384 residues) expressed in bacterial expression system at 10 uM by Kinomescan method relative to control.
Assay [21] has as its target Serine/threonine-protein kinase N1 (Homo sapiens) (UniProt Q16512). Put plainly: Inhibition of wild-type human partial length PKN1 (E598 to C948 residues) expressed in bacterial expression system at 10 uM by Kinomescan method relative to control.
Assay [22] has as its target Wee1-like protein kinase 2 (Homo sapiens) (UniProt P0C1S8). Put plainly: Inhibition of wild-type human partial length WEE2 (M204 to K492 residues) expressed in bacterial expression system at 10 uM by Kinomescan method relative to control.
Assay [23] deals with Cyclin-G-associated kinase (Homo sapiens) (UniProt O14976). Kind of assay: Inhibition of wild-type human partial length GAK (G13 to Y338 residues) expressed in bacterial expression system at 10 uM by Kinomescan method relative to control.
Assay [24] relates to Phosphatidylinositol 4,5-bisphosphate 3-kinase catalytic subunit alpha isoform (Homo sapiens), P42336 [E545A]. Kind of assay: Inhibition of human partial length PIK3CA E545A mutant (R108 to N1068 residues) expressed in mammalian expression system at 10 uM by Kinomescan method relative to control.
Assay [25] deals with Myosin light chain kinase family member 4 (Homo sapiens) (UniProt Q86YV6). Kind of assay: Inhibition of wild-type human partial length MYLK4 (V79 to S380 residues) expressed in bacterial expression system at 10 uM by Kinomescan method relative to control.
Sequence of Myosin light chain kinase family member 4 (Homo sapiens) (Q86YV6 whole entry, the tested form may be a part): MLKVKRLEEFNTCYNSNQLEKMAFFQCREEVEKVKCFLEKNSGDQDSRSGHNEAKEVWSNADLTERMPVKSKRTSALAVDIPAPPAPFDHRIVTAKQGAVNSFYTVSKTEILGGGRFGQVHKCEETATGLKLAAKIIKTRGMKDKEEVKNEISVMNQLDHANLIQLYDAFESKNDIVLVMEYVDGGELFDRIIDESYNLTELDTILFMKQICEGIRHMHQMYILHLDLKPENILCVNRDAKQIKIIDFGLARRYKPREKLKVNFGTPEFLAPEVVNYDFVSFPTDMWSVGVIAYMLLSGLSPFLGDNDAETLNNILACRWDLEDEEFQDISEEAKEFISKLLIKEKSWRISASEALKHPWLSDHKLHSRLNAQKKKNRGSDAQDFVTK
Assay [26] addresses Interleukin-1 receptor-associated kinase 1 (Homo sapiens) (UniProt P51617). Put plainly: Inhibition of wild-type human partial length IRAK1 (R194 to S712 residues) expressed in mammalian expression system at 10 uM by Kinomescan method relative to control.
Assay [27] has as its target Calcium/calmodulin-dependent protein kinase type II subunit beta (Homo sapiens) (UniProt Q13554). Kind of assay: Inhibition of wild-type human partial length CAMK2B (M1 to Q380 residues) expressed in bacterial expression system at 10 uM by Kinomescan method relative to control.

The structures appear in SMILES notation.

Sequence of Serine/threonine-protein kinase Nek6 (Homo sapiens) (Q9HC98 whole entry, the tested form may be a part): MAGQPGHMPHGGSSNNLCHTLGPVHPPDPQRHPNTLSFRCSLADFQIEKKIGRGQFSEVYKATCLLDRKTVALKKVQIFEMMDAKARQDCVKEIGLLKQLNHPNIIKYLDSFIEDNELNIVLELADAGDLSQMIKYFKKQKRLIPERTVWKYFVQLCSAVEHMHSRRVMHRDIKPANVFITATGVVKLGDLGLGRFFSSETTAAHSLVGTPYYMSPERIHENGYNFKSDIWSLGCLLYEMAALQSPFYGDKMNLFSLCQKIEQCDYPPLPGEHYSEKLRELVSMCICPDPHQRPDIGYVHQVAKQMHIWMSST

Usually inhibition stands for the relative decrease from the control value, in per cent. `O=C(Nc1cccc([C@@H]2CN(c3ncnc4[nH]ccc34)CCN2CCO)c1)Nc1c(F)cccc1N1CCCC1`: the inhibition turned out to be 100% in assay [1]; 52% in assay [2]; 42% in [3]; 86% in [4]; 100% in assay [5]; 72% in [6]. Moreover, the inhibition came to 86% in assay [7]; 90% in assay [8]; 86% in [9]; 100% in assay [10]; 100% in [11].

With `O=C(Nc1cccc([C@H]2CCCN(c3ncnc4[nH]ccc34)C2)c1)Nc1ccccc1N1CCCC1`, the inhibition in assay [12] came out at 100%; in assay [13], 55%; in assay [14], 100%; in [15] it was 46%; in [16], 81%; in assay [17] it was 69%. Also, the inhibition in assay [18] is 46%; in assay [19], 80%; in assay [20], 93%; in [21], 100%; in assay [22] it was 100%; in assay [23], 24%. The inhibition in assay [24] came to 58%; in assay [25], 2.6%; in assay [26], 80%; in assay [27], 87%.
